Test: xn = mol fraction of the nth substance listed
Conditions: 298.15 K, 101.3 kPa

CC(=O)[O-].CCCC[N+]1(C)CCCC1 + O
Conditions	electrical conductivity [S/m]
x1 = 0.005	1.84
x1 = 0.029	2.8
x1 = 0.046	2.63
x1 = 0.069	2.17
x1 = 0.095	1.79
x1 = 0.111	1.26
x1 = 0.138	1.18
x1 = 0.215	0.8
x1 = 0.253	0.575
x1 = 0.305	0.495
x1 = 0.396	0.339
x1 = 0.5	0.193
x1 = 0.658	0.142
